Results: patent publication US8192962B2, “Processes for detecting toxic substances” (Daikin Industries, Ltd., priority 2001, dated 2012)

Test system: Unknown protein yeast genes
Assay: DNA chip mRNA expression in yeast, unknown protein yeast genes (Table 1)
Type: cell-based, Saccharomyces cerevisiae S288C
Method in brief: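 In this screen, yeast in logarithmic growth are challenged for two hours with a toxic substance at a non-lethal inhibitory concentration. Their mRNA, converted to Cy3- or Cy5-labeled cDNA, hybridizes at 65° C. to a chip spanning every yeast gene, and expression is expressed as a ratio to untreated cells.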

SMILES: CCCCCCCCCCCCc1ccc(S(=O)(=O)[O-])cc1.[Na+] [(17), sodium dodecylbenzosulfonate]
- The level of expressed mRNA in the presence of chemical substance/The level of expressed mRNA in the absence of chemical substance (yeast gene YKL195W, incubated two hours with chemical substance): 1.4
- The level of expressed mRNA in the presence of chemical substance/The level of expressed mRNA in the absence of chemical substance (yeast gene YKR091W, incubated two hours with chemical substance): 1.6
- The level of expressed mRNA in the presence of chemical substance/The level of expressed mRNA in the absence of chemical substance (yeast gene YLR054C, incubated two hours with chemical substance): 1.6
- The level of expressed mRNA in the presence of chemical substance/The level of expressed mRNA in the absence of chemical substance (yeast gene YLR149C, incubated two hours with chemical substance): 1.3
- The level of expressed mRNA in the presence of chemical substance/The level of expressed mRNA in the absence of chemical substance (yeast gene YLR152C, incubated two hours with chemical substance): 1.5
- The level of expressed mRNA in the presence of chemical substance/The level of expressed mRNA in the absence of chemical substance (yeast gene YLR194C, incubated two hours with chemical substance): 1.0
- The level of expressed mRNA in the presence of chemical substance/The level of expressed mRNA in the absence of chemical substance (yeast gene YLR324W, incubated two hours with chemical substance): 1.2
- The level of expressed mRNA in the presence of chemical substance/The level of expressed mRNA in the absence of chemical substance (yeast gene YLR350W, incubated two hours with chemical substance): 1.6
- The level of expressed mRNA in the presence of chemical substance/The level of expressed mRNA in the absence of chemical substance (yeast gene YLR387C, incubated two hours with chemical substance): 1.0
- The level of expressed mRNA in the presence of chemical substance/The level of expressed mRNA in the absence of chemical substance (yeast gene YLR460C): 1.0
- The level of expressed mRNA in the presence of chemical substance/The level of expressed mRNA in the absence of chemical substance (yeast gene YML117W, incubated two hours with chemical substance): 1.1
- The level of expressed mRNA in the presence of chemical substance/The level of expressed mRNA in the absence of chemical substance (yeast gene YMR009W, incubated two hours with chemical substance): 2.7
- The level of expressed mRNA in the presence of chemical substance/The level of expressed mRNA in the absence of chemical substance (yeast gene YMR067C, incubated two hours with chemical substance): 1.0
- The level of expressed mRNA in the presence of chemical substance/The level of expressed mRNA in the absence of chemical substance (yeast gene YMR090W): 1.8
- The level of expressed mRNA in the presence of chemical substance/The level of expressed mRNA in the absence of chemical substance (yeast gene YMR095C, incubated two hours with chemical substance): 1.0
- The level of expressed mRNA in the presence of chemical substance/The level of expressed mRNA in the absence of chemical substance (yeast gene YMR097C, incubated two hours with chemical substance): 1.4
- The level of expressed mRNA in the presence of chemical substance/The level of expressed mRNA in the absence of chemical substance (yeast gene YMR102C, incubated two hours with chemical substance): 2.4
- The level of expressed mRNA in the presence of chemical substance/The level of expressed mRNA in the absence of chemical substance (yeast gene YMR107W, incubated two hours with chemical substance): 1.3
- The level of expressed mRNA in the presence of chemical substance/The level of expressed mRNA in the absence of chemical substance (yeast gene YMR180C, incubated two hours with chemical substance): 1.4
- The level of expressed mRNA in the presence of chemical substance/The level of expressed mRNA in the absence of chemical substance (yeast gene YMR184W, incubated two hours with chemical substance): 1.4
- The level of expressed mRNA in the presence of chemical substance/The level of expressed mRNA in the absence of chemical substance (yeast gene YMR191W, incubated two hours with chemical substance): 1.2
- The level of expressed mRNA in the presence of chemical substance/The level of expressed mRNA in the absence of chemical substance (yeast gene YMR295C, incubated two hours with chemical substance): 2.1
- The level of expressed mRNA in the presence of chemical substance/The level of expressed mRNA in the absence of chemical substance (yeast gene YMR316W, incubated two hours with chemical substance): 6.9
- The level of expressed mRNA in the presence of chemical substance/The level of expressed mRNA in the absence of chemical substance (yeast gene YNL044W, incubated two hours with chemical substance): 3.1
- The level of expressed mRNA in the presence of chemical substance/The level of expressed mRNA in the absence of chemical substance (yeast gene YNL074C, incubated two hours with chemical substance): 1.1
- The level of expressed mRNA in the presence of chemical substance/The level of expressed mRNA in the absence of chemical substance (yeast gene YNL092W, incubated two hours with chemical substance): 1.7
- The level of expressed mRNA in the presence of chemical substance/The level of expressed mRNA in the absence of chemical substance (yeast gene YNL115C, incubated two hours with chemical substance): 1.6
- The level of expressed mRNA in the presence of chemical substance/The level of expressed mRNA in the absence of chemical substance (yeast gene YNL156C, incubated two hours with chemical substance): 1.8
- The level of expressed mRNA in the presence of chemical substance/The level of expressed mRNA in the absence of chemical substance (yeast gene YNL234W, incubated two hours with chemical substance): 1.0
- The level of expressed mRNA in the presence of chemical substance/The level of expressed mRNA in the absence of chemical substance (yeast gene YNL281W, incubated two hours with chemical substance): 0.9
- The level of expressed mRNA in the presence of chemical substance/The level of expressed mRNA in the absence of chemical substance (yeast gene YNL305C, incubated two hours with chemical substance): 1.7
- The level of expressed mRNA in the presence of chemical substance/The level of expressed mRNA in the absence of chemical substance (yeast gene YNR068C, incubated two hours with chemical substance): 1.0
- The level of expressed mRNA in the presence of chemical substance/The level of expressed mRNA in the absence of chemical substance (yeast gene YOL032W, incubated two hours with chemical substance): 1.7
- The level of expressed mRNA in the presence of chemical substance/The level of expressed mRNA in the absence of chemical substance (yeast gene YOL036W, incubated two hours with chemical substance): 1.1
- The level of expressed mRNA in the presence of chemical substance/The level of expressed mRNA in the absence of chemical substance (yeast gene YOL047C, incubated two hours with chemical substance): 1.5
- The level of expressed mRNA in the presence of chemical substance/The level of expressed mRNA in the absence of chemical substance (yeast gene YOL071W, incubated two hours with chemical substance): 1.3
- The level of expressed mRNA in the presence of chemical substance/The level of expressed mRNA in the absence of chemical substance (yeast gene YOL082W, incubated two hours with chemical substance): 1.6
- The level of expressed mRNA in the presence of chemical substance/The level of expressed mRNA in the absence of chemical substance (yeast gene YOL083W, incubated two hours with chemical substance): 1.4
- The level of expressed mRNA in the presence of chemical substance/The level of expressed mRNA in the absence of chemical substance (yeast gene YOL117W, incubated two hours with chemical substance): 1.3
- The level of expressed mRNA in the presence of chemical substance/The level of expressed mRNA in the absence of chemical substance (yeast gene YOL131W, incubated two hours with chemical substance): 1.1
- The level of expressed mRNA in the presence of chemical substance/The level of expressed mRNA in the absence of chemical substance (yeast gene YOL150C): 2.7
- The level of expressed mRNA in the presence of chemical substance/The level of expressed mRNA in the absence of chemical substance (yeast gene YOL162W, incubated two hours with chemical substance): 1.2
- The level of expressed mRNA in the presence of chemical substance/The level of expressed mRNA in the absence of chemical substance (yeast gene YOR019W, incubated two hours with chemical substance): 1.7
- The level of expressed mRNA in the presence of chemical substance/The level of expressed mRNA in the absence of chemical substance (yeast gene YOR197W, incubated two hours with chemical substance): 1.5
- The level of expressed mRNA in the presence of chemical substance/The level of expressed mRNA in the absence of chemical substance (yeast gene YPL087W, incubated two hours with chemical substance): 2.1
- The level of expressed mRNA in the presence of chemical substance/The level of expressed mRNA in the absence of chemical substance (yeast gene YPL196W, incubated two hours with chemical substance): 1.4
- The level of expressed mRNA in the presence of chemical substance/The level of expressed mRNA in the absence of chemical substance (yeast gene YPL206C, incubated two hours with chemical substance): 1.4
- The level of expressed mRNA in the presence of chemical substance/The level of expressed mRNA in the absence of chemical substance (yeast gene YPL222W, incubated two hours with chemical substance): 1.1
- The level of expressed mRNA in the presence of chemical substance/The level of expressed mRNA in the absence of chemical substance (yeast gene YPR023C, incubated two hours with chemical substance): 1.0
- The level of expressed mRNA in the presence of chemical substance/The level of expressed mRNA in the absence of chemical substance (yeast gene YPR151C, incubated two hours with chemical substance): 1.3
